# Results reported in EP1921072A1, “1,2,3-Triazole derivatives as cannabinoid-receptor modulators” (Laboratorios del Dr. Esteve S.A., priority 2006, dated 2008).
# Target: T1, CB1-Receptor (Homo sapiens, UniProt P21554)
# T1 construct: purchased Receptor Biology, Inc
# Test: In-vitro determination of affinity to CB1 receptor (radioligand [3H]-CP55940 binding)
# Settings: compound at 10^-6 M, transfected human CB1 receptors
# Method: The in-vitro determination of the affinity of the inventive substituted pyrazoline compounds to CB1/CB2-receptors is carried out as described in the publication of Ruth A. Ross, Heather C. Brockie et al., "Agonist-inverse agonist characterization at CB1 and CB2 cannabinoid receptors of L-759633, L759656 and AM630", British Journal of Pharmacology, 126, 665-672, (1999), whereby the transfected human CB1 and CB2 receptors of Receptor Biology, Inc. are used. The radioligand used for both receptors is [^3H]-CP55940. The respective parts of the description are hereby incorporated by reference and forms part of the present disclosure.
# The affinity of the inventive substituted pyrazoline compounds to CB1/CB2 receptors was determined as described above.
# T1 sequence (P21554 whole entry): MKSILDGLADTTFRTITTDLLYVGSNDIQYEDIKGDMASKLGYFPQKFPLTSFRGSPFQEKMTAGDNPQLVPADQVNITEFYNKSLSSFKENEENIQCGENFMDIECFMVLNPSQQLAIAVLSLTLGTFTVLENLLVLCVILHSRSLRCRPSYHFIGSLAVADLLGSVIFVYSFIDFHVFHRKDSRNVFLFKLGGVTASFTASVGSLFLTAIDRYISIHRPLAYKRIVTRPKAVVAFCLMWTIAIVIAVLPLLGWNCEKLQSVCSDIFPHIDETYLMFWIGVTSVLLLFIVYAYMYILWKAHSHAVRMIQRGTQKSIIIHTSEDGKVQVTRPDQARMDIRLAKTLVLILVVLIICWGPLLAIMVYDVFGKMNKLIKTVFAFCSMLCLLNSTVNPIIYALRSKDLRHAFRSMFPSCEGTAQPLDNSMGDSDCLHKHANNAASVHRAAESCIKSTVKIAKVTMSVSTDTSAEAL
row,Compound,inhibition at 1 µM [%]
1,"CCCCCn1nc(-c2ccccc2)c(-c2ccc(Cl)cc2)n1 [Compound 10a, 4-(p-Chlorophenyl)-2-pentyl-5-phenyl-2H-[1,2,3]triazole]",22.8
2,"CCCCCn1nnc(-c2ccccc2)c1-c1ccc(Cl)cc1 [Compound 10c, 5-(p-Chlorophenyl)-1-pentyl-4-phenyl-1H-[1,2,3]triazole]",21.1
3,"CCCCCn1nc(-c2ccc(C)cc2)c(-c2ccc(Cl)cc2Cl)n1 [Compound 11a, 4-(2,4-Dichlorophenyl)-2-pentyl-5-p-tolyl-2H-[1,2,3]triazole]",29.8
4,"Clc1ccc(-c2nn(Cc3ccc(Br)cc3)nc2-c2ccccc2)cc1 [Compound 13a, 2-(p-Bromobenzyl)-4-(p-chlorophenyl)-5-phenyl-2H-[1,2,3]triazole]",45.6
5,"Clc1ccc(-c2nnn(Cc3ccccc3)c2-c2ccccc2)cc1 [Compound 14b, 1-Benzyl-4-(p-chlorophenyl)-5-phenyl-1H-[1,2,3]triazole]",24.6
6,"Fc1cc(Br)ccc1-c1cnn(Cc2ccccc2)n1 [Compound 15a, 2-Benzyl-4-(4-bromo-2-fluorophenyl)-2H-[1,2,3]triazole]",26.6
7,"Clc1ccc(-c2nn(C3C4CC5CC(C4)CC3C5)nc2-c2ccccc2)cc1 (stereo not shown) [Compound 19a, 2-Adamantyl-4-(p-chlorophenyl)-5-phenyl-2H-[1,2,3]triazole]",23.1
